# Reference: patent publication US8470859B2, “Iminopyridine derivative and use thereof” (Takeda Pharmaceutical Company Limited, priority 2006, dated 2013)
# Where a name gives a salt, the structure may show the parent alone. Read-outs that look alike come from different tables or passages of the source.
# Legend:
# [1] = tested on: isolated bladder muscle of BOO model rat; assay: Effect of various drugs on α1 receptor stimulation-induced contraction of isolated bladder muscle of bladder outlet obstruction (BOO) model rat; details: phenylephrine 3 μmol/L; for IC50: Rattus norvegicus, 0.5 h, concentration inhibiting the average tension by 50%, read-out: Inhibitory effect on phenylephrine-induced contraction IC50 (average method); for IC50 / Inhibitory effect on phenylephrine-induced contraction IC30 (stddev method): cumulative treatment, 3 concentrations, 30 min intervals; for Inhibitory effect on phenylephrine-induced contraction IC30 (stddev method): concentration inhibiting the sustained, rhythmic contractile responses by 30%
# Procedure: Effect of Various Drugs on α1 Receptor Stimulation-Induced Contraction of Isolated Bladder Muscle of Bladder Outlet Obstruction (BOO) Model Rat
# • (i) Seven-week-old male Wistar rats (CLEA Japan, Inc., Tokyo) were used. BOO rat was prepared according to publications (Hashimoto T, Nagabukuro H and Doi T: Effects of the selective acetylcholinesterase inhibitor TAK-802 on the voiding behavior and bladder mass increase in rats with partial bladder outlet obstruction. J Urol. 174: 1137-41., 2005.). After pentobarbital (50 mg/kg i.p., Dainippon Sumitomo Pharma Co., Ltd., Osaka) anesthesia, a lower middle abdominal incision was made to expose the bladder. The prostate was detached, the urethra was ligated along with a glass rod having an outer diameter of 1.2 mm, and the glass rod was removed to prepare partial obstruction of the urethra. After the surgery, the abdomen was sutured, and penicillin (2000 IU/rat, penicillin G potassium, MEIJI SEIKA KAISHA, LTD., Tokyo) was subcutaneously administered. An animal after 2 to 4 weeks from obstruction surgery was used. • (ii) Contractile Responses of Isolated Bladder Muscle (1) Preparation of Bladder Muscle Specimen
# BOO model rat was sacrificed by decaptation, and the bladder was isolated. Muscle strips (length 7-10 mm, width about 3 mm) in the longitudinal direction were prepared from the bladder except bladder trigone (4-6 specimen from each bladder).
# The prepared bladder muscle specimens were hung in a Magnus bath aerated with 95% O2-5% CO2 gas and filled with modified Krebs solution. The contraction tension was measured by an isometric strain transducer (TSD125C, Biopac systems, Santa Barbara, Calif., USA) and recorded in the hard disc of PC (ThinkCentre, IBM, USA) via an amplifier (DA100C, Biopac systems) and a multichannel data analysis apparatus (MP100A-CE, Biopac systems). For uptaking the data, a dedicated software (Acqknowledge 3.8.1., Biopac systems) was used and the sampling interval was set to 0.2 second (5 Hz). The specimens were hung with a load of about 1 g and, after an equilibration time of 1 hr or longer, the following experiment was performed.
# The specimens were treated with phenylephrine (3 μmol/L) to induce contraction. After the contractile response was stabilized (>20 min), the specimens were cumulatively treated 3 times with a drug at a 10-fold common ratio and 30 min intervals, and the variation in the tension was observed.
# The variation in the tension due to α1 receptor stimulation was evaluated by the two methods shown below [average method and standard deviation (Stddev) method].
# The average tension for one minute was measured immediately before phenylephrine treatment and after the contraction was stabilized after the treatment (immediately before completion of about 20 min observation time), and the difference was taken as 100%. The average tension for one minute was measured immediately before completion of observation time (30 min) after treatment with a drug at each concentration, and the inhibition rate of the drug at each concentration was calculated. In the vehicle treatment group, the variation rate of phenylephrine-induced contraction was calculated every time the specimens were treated 3 times with lo the solvent, and the inhibition rate of the drug at each concentration was adjusted based on the variation rate of the corresponding vehicle treatment group. The concentration (IC50) necessary for inhibiting the average tension by 50% by preclinical package (SAS Institute Japan, Ver. 5.0) was calculated based on the inhibition rate at each concentration.
# The standard deviation was measured immediately before phenylephrine treatment and for 5 min after the contraction was stabilized after treatment (immediately before completion of the about 20 min observation time) and the difference was taken as 100%. […]
# [2] = molecular target: T1, human adrenaline α1D receptor (Homo sapiens, UniProt P25100); assay: Measurement of α1D receptor binding inhibitory activity ([3H]prazosin binding to membrane fraction of CHO-K1 cells expressing the receptor); details: read-out: binding inhibitory rate (%) (α1D receptor binding inhibitory rate at 1 μM)
# T1 construct: expressed in transfected cells; membrane fraction used
# T1 sequence (P25100 1-572): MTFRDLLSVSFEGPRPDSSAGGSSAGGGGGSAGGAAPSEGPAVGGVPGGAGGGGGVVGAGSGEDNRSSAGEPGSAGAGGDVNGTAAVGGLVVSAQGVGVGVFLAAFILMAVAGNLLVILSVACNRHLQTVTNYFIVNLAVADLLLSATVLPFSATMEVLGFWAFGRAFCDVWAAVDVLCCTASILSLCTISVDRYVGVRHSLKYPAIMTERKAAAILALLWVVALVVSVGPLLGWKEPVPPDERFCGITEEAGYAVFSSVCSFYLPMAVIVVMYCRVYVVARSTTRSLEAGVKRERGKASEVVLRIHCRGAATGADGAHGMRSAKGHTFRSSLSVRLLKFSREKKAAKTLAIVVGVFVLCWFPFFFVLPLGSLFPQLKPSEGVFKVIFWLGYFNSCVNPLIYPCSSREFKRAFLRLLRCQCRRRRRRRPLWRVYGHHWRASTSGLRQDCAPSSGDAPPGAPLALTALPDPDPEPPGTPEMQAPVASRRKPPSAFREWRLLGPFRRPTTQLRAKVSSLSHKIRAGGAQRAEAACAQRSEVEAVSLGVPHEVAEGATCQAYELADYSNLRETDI
# Procedure: Measurement of α1D Receptor Binding Inhibitory Activity
# Genetic manipulation methods described below are based on the methods described in Maniatis et al., Molecular Cloning, Cold Spring Harbor Laboratory, 1989, the protocol appended to a reagent and the like. • (i) Preparation of Human Adrenaline α1D Receptor Expression Plasmid
# Adrenaline α1D receptor gene was cloned from human […] CDNA by the PCR method. PCR reaction was performed by Gene Amp PCR System 9700 (Applied Biosystems) with […] each of the primer set 5′-[…]-3′ [SEQ ID NO: 1] and 5′-[…]-3′ [SEQ ID NO: 2] prepared in reference to the base sequence of the adrenaline α1D receptor gene reported by DEBRA A. et al. (J. Pharamacol. Exp. Ter., 272, 134-142 (1995)), 200 ng of human brain hippocampus cDNA library (Takara Shuzo Co., Ltd.) as a template and TaKaRa LA-Taq DNA Polymerase (Takara Shuzo Co., Ltd.) (reaction conditions: 45 cycles of 94° C. for 15 sec, 68° C. for 3.5 min).
# The PCR fragment obtained above was digested with restriction enzymes NheI (Takara Shuzo Co., Ltd.) and Kpn I (Takara Shuzo Co., Ltd.) and applied to agarose gel electrophoresis to recover DNA fragments. The DNA fragments was ligated with animal cell expression plasmid, pcDNA3.1/Zeo (Invitrogen) digested with NheI and Kpn I, by DNA Ligation Kit Ver.2 (Takara Shuzo Co., Ltd.), and transformed the competent cells of Escherichia coli JM109 to obtain plasmid, pcDNA3. 1/Zeo-Adreα1D. • (ii) Introduction of Human Adrenaline α1D Receptor Expression Plasmid into CHO-K1 Cells and Preparation of Membrane Fraction
# CHO-K1 cells passage cultured in HmF12 medium (Invitrogen) containing 10% fetal bovine serum (TRACE SCIENCETIFIC) in a 150 cm^2 culture flask (Corning Coaster) were detached with 0.5 g/L trypsin-0.2 g/L EDTA (Invitrogen), and the cells were washed with D-PBS(−) (Invitrogen) and centrifuged (1000 rpm, 5 min). Then, using Gene Pulser II (BioRad), DNA was introduced into the cells under the following conditions. 1×10^7 cells suspended in D-PBS(−) (700 μl) and 10 μg of pcDNA3.1/Zeo-Adreα1D were added in a 0.4 cm gap cuvette (BioRad), and electroporation was performed under voltage 0.25 kV, capacitance 960 μF. The cells were cultured in HamF12 medium containing 10% fetal bovine serum and 250 μg/mL Zeocin (Invitrogen) and the Zeocin resistance clones were selected.
# Plurality of Zeocin resistance clones were selected and cultured in a cell culture flask (150 cm^2) until semiconfluent, and the cellular membrane fraction was prepared as follows.
# The semiconfluent cells were detached with 0.02% EDTA containing D-PBS(−) and recovered by centrifugation. The cells were suspended in membrane preparation buffer (10 mM NaHCO3 pH 7.4, protease inhibitor cocktail (Roche)) and disrupted by 3 times of treatment in a polytron homogenizer (model PT-3100, KINEMATICA AG) at 20000 rpm for 20 seconds. After disruption, the cells were centrifuged at 2000 rpm for 10 min and the supernatant containing membrane fractions was obtained. The supernatant was centrifuged using an ultracentrifuge (model L8-70M, rotor 70 Ti, Beckman Instruments) at 30000 rpm for 1 hr to obtain a precipitate containing membrane fractions. The obtained membrane fraction of each clone was subjected to the binding experiment shown below.
# The membrane fraction (20 μg/well) [^3H] prazosin (2.5 nM, PerkinElmer Lifescience), as a ligand, were diluted with a binding assay buffer (50 mM Tris-HCl, 10 mM MgCl2, 0.5% BSA, protease inhibitor cocktail pH 7.5) and added to a 96 well microplate, and reacted at room temperature for 1 hr. For the measurement of non-specific binding, phentolamine (Sigma) was further added to 10 μM. Then, the reaction mixture was filtered and transferred to unifilter GF/C (PerkinElmer Lifescience) by using a cell harvester (PerkinElmer Lifescience). The filter was washed 3 times with ice-cooled 50 mM Tris buffer (pH 7.5). […]
# [3] = compound at 1 μM, [3H] prazosin 2.5 nM, membrane fraction 20 μg/well
"inhibition at 1 µM [2, 3] [%]",SMILES,also measured
,COc1ccccc1N1CCN(CCN2C(=O)CC3(CCCC3)CC2=O)CC1 [BMY 7378],"IC50 [1]: 270 nM; effect on the rhythmic contractile response induced by phenylephrine (average method and Stddev method), in words [1]: inhibited; Inhibitory effect on phenylephrine-induced contraction IC30 (stddev method) [1]: 89 nM"
81.8,"N=c1c(C(N)=O)cc(Cl)cn1CCc1ccccc1 [Example 23, 5-chloro-2-imino-1-(2-phenylethyl)-1,2-dihydropyridine-3-carboxamide]",
75.7,"N=c1c(C(N)=O)cc(Cl)cn1CC1CCCCC1 [Example 26, 5-chloro-1-(cyclohexylmethyl)-2-imino-1,2-dihydropyridine-3-carboxamide]",
96,"CS(=O)(=O)c1cc(Cl)ccc1Cn1cc(Cl)cc(C(N)=O)c1=N [Example 149, 5-chloro-1-[4-chloro-2-(methylsulfonyl)benzyl]-2-imino-1,2-dihydropyridine-3-carboxamide hydrobromide]",
,"N#Cc1cc(C(N)=O)c(=N)n(Cc2cccc(Cl)c2)c1 [Example 151, 1-(3-chlorobenzyl)-5-cyano-2-imino-1,2-dihydropyridine-3-carboxamide hydrobromide]",inhibition at 1 µM [2]: 69.5%
91.8,"N#Cc1ccc(F)c(Cn2cc(Cl)cc(C(N)=O)c2=N)c1 [Example 156, 5-chloro-1-(5-cyano-2-fluorobenzyl)-2-imino-1,2-dihydropyridine-3-carboxamide hydrobromide]",
95.4,"N#Cc1cc(F)cc(Cn2cc(Cl)cc(C(N)=O)c2=N)c1 [Example 181, 5-chloro-1-(3-cyano-5-fluorobenzyl)-2-imino-1,2-dihydropyridine-3-carboxamide hydrobromide]",
99.2,"N#Cc1cc(Cl)cc(Cn2cc(Cl)cc(C(N)=O)c2=N)c1 [Example 182, 5-chloro-1-(3-chloro-5-cyanobenzyl)-2-imino-1,2-dihydropyridine-3-carboxamide hydrobromide]",
,COc1ccccc1N1CCN(CC(O)COc2cccc3ccccc23)CC1 (stereo not drawn) [Naftopidil],"IC50 [1]: 1500 nM; effect on the rhythmic contractile response induced by phenylephrine (average method and Stddev method), in words [1]: inhibited; Inhibitory effect on phenylephrine-induced contraction IC30 (stddev method) [1]: 3800 nM"
,"CCOc1ccccc1OCCN[C@H](C)Cc1ccc(OC)c(S(N)(=O)=O)c1 [Tamsulosin, tamsulosin]","IC50 [1]: 34 nM; effect on the rhythmic contractile response induced by phenylephrine (average method and Stddev method), in words [1]: inhibited; Inhibitory effect on phenylephrine-induced contraction IC30 (stddev method) [1]: 9.4 nM"

SMILES,"inhibition at 1 µM [2, 3] [%]",also measured
"N=c1c(C(N)=O)cc(Cl)cn1Cc1cccc(Cl)c1 [Example 19, 5-chloro-1-(3-chlorobenzyl)-2-imino-1,2-dihydropyridine-3-carboxamide]",99.1,
"N=c1c(C(N)=O)cc(Cl)cn1Cc1ccc(Cl)c(Cl)c1 [Example 20, 5-chloro-1-(3,4-dichlorobenzyl)-2-imino-1,2-dihydropyridine-3-carboxamide]",100,
"N=c1c(C(N)=O)cc(Cl)cn1C1CCc2ccccc21 (stereo not drawn) [Example 32, 5-chloro-1-(2,3-dihydro-1H-inden-1-yl)-2-imino-1,2-dihydropyridine-3-carboxamide]",93.9,
"C[C@H](c1ccccc1)n1cc(Cl)cc(C(N)=O)c1=N [Example 168, 5-chloro-2-imino-1-[(1R)-1-phenylethyl]-1,2-dihydropyridine-3-carboxamide hydrochloride]",94.7,
"N=c1c(C(N)=O)cc(Cl)cn1[C@@H]1CCc2ccccc21 [Example 169, 5-chloro-1-[(1R)-2,3-dihydro-1H-inden-1-yl]-2-imino-1,2-dihydropyridine-3-carboxamide hydrochloride]",100,
